According to patent US7595401B2, “Therapeutic compounds and their use in cancer” (Myriad Pharmaceuticals, Inc., priority 2006, dated 2009):
pIC50: −log10 of the molar value.

Biological target: purified human Hsp90
Test: Binding Assay: fluorescence polarization with BODIPY-labeled geldanamycin
Conditions: BODIPY-GM 10 nM, Hsp90 30 nM
Outline: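 Compounds in 2% DMSO final compete with 10 nM BODIPY-GM for 30 nM purified human Hsp90, incubated overnight at room temperature in pH 7.3 HEPES buffer containing Na2MoO4 and DTT. Polarization (mP, ex/em 485/530) normalized to DMSO gives percent inhibition; autofluorescence-confounded data excluded.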

Structure (SMILES)	pIC50	% Inhibition at 5 μM Compound Concentration
Nc1ncnc2c1nc(Sc1cc3c(cc1I)OCO3)n2CCc1ccccc1 [Example 33, 8-(-6-Iodo-benzo[1,3]dioxol-5-ylsulfanyl)-9-phenethyl-9H-purin-6-ylamine]	7.77	–
COc1ccc([N+](=O)[O-])cc1Sc1nc2c(N)ncnc2n1CCc1ccccc1Cl [Example 318, 9-[2-(2-Chlorophenyl)ethyl]-8-[(2-methoxy-5-nitrophenyl)thio]-9H-purin-6-amine]	5.15	–
CCOP(=O)(OCC)N1CCC(CCn2c(Sc3cc4c(cc3Br)OCO4)nc3c(N)ncnc32)CC1 [Example 644, Diethyl [4-(2-{6-amino-8-[(6-bromo-1,3-benzodioxol-5-yl)thio]-9 H-purin-9-yl}ethyl)piperidin-1-yl]phosphonate]	6.70	–
Cc1cc(=O)oc2cc(Sc3nc4c(N)ncnc4n3CCC3CCN(C=O)CC3)ccc12 [Example 532, 4-(2-{6-Amino-8-[(4-methyl-2-oxo-2 H-chromen-7-yl)thio]-9 H-purin-9-yl}ethyl)piperidine-1-carbaldehyde]	5.30	–
Nc1ncnc2c1nc(Sc1cccc(OC(F)F)c1)n2CCc1c(F)cccc1Cl [Example 254, 9-[2-(2-Chloro-6-fluorophenyl)ethyl]-8-{[3-(difluoromethoxy)phenyl]thio}-9H-purin-6-amine]	< 5.10	–
COc1ccc(OC)c(Sc2nc3c(N)ncn(CCc4cc(OC)c(OC)c(OC)c4)c-3n2)c1 [Example 90, 8-(2,5-Dimethoxy-phenylsulfanyl)-3-[2-(3,4,5-trimethoxy-phenyl)-ethyl]-3H-purin-6-ylamine]	–	6%
COc1ccc(OC)c(Sc2nc3c(N)ncnc3n2CCc2cccc(Cl)c2Cl)c1 [Example 73, 9-[2-(2,3-Dichloro-phenyl)-ethyl]-8-(2,5-dimethoxy-phenylsulfanyl)-9H-purin-6-ylamine]	< 5.52	2%
Nc1ncn(CC2(c3ccc(Cl)cc3)CCC2)c2nc(Sc3cc4c(cc3Br)OCO4)nc1-2 [Example 96, 8-(6-bromo-benzo[1,3]dioxol-5-ylsulfanyl)-3-[1-(4-chloro-phenyl)-cyclobutylmethyl]-3H-purin-6-ylamine]	–	2%
COc1ccc(OC)c(Sc2nc3c(N)ncn(CCC4CCCCC4)c-3n2)c1 [Example 170, 3-(2-cyclohexyl-ethyl)-8-(2,5-dimethoxy-phenylsulfanyl)-3H-purin-6-ylamine]	–	3%
COc1cccc(Sc2nc3c(N)ncnc3n2CC(=O)c2ccccc2)c1 [Example 298, 2-{6-Amino-8-[(3-methoxyphenyl)thio]-9H-purin-9-yl}-1-phenylethanone]	< 4.60	–
Nc1ncnc2c1nc(Sc1cc(OC(F)(F)F)ccc1OC1CCCC1)n2CCc1ccccc1Cl [Example 329, 9-[2-(2-Chlorophenyl)ethyl]-8-{[2-(cyclopentyloxy)-5-(trifluoromethoxy)phenyl]thio}-9H-purin-6-amine]	–	25.0%
COc1ccc(CCn2c(Sc3cc4c(cc3Br)OCO4)nc3c(N)ncnc32)cc1OC [Example 296, 8-[(6-Bromo-1,3-benzodioxol-5-yl)thio]-9-[2-(3,4-dimethoxyphenyl)ethyl]-9H-purin-6-amine]	6.46	–
CCOC(=O)CNC(=O)N1CCC(CCn2c(Sc3cc4c(cc3Br)OCO4)nc3c(N)ncnc32)CC1 [Example 434, Ethyl N-{[4-(2-{6-amino-8-[(6-bromo-1,3-benzodioxol-5-yl)thio]-9H-purin-9-yl}ethyl)piperidin-1-yl]carbonyl}glycinate]	7.43	–
CC(C)C[C@H](N)C(=O)N1CCCC(CCn2c(Sc3cc4c(cc3Br)OCO4)nc3c(N)ncnc32)C1 (stereo partly drawn) [Example 748, 9-(2-{1-[(2S)-2-Amino-4-methylpentanoyl]piperidin-3-yl}ethyl)-8-[(6-bromo-1,3-benzodioxol-5-yl)thio]-9H-purin-6-amine]	6.68	–
Nc1ncnc2c1nc(Sc1ccc3ncoc3c1)n2CCc1ccccc1 [Example 283, 8-(1,3-Benzoxazol-6-ylthio)-9-(2-phenylethyl)-9H-purin-6-amine]	4.92	–
CC(=O)Nc1ccc(Sc2nc3c(N)ncnc3n2CCC2CCN(C=O)CC2)c(Cl)c1 [Example 548, N-[4-({6-Amino-9-[2-(1-formylpiperidin-4-yl)ethyl]-9 H-purin-8-yl}thio)-3-chlorophenyl]acetamide]	< 5.30	–
CC(C)(C)OC(=O)N1CCC(CCn2c(Sc3cc4c(cc3Br)OCO4)nc3c(N)ncnc32)C(C)(C)C1 (stereo not shown) [Example 464, tert-Butyl 4-(2-{6-amino-8-[(6-bromo-1,3-benzodioxol-5-yl)thio]-9H-purin-9-yl}ethyl)-3,3-dimethylpiperidine-1-carboxylate]	6.40	–
COc1ccc(OC)c(Sc2nc3c(N)ncn(CCc4ccc(C)cc4)c-3n2)c1 [Example 24, 8-(2,5-dimethoxy-phenylsulfanyl)-3-(2-p-tolyl-ethyl)-3H-purin-6-ylamine]	< 5.00	–
COc1ccc(OC)c(Sc2nc3c(N)ncnc3n2CCc2ccc(S(=O)(=O)NC(C)(C)C)cc2)c1 [Example 275, 4-(2-{6-Amino-8-[(2,5-dimethoxyphenyl)thio]-9H-purin-9-yl}ethyl)-N-(tert-butyl)benzenesulfonamide]	< 5.52	–
COc1ccc(OC)c(Sc2nc3c(N)ncn(CCc4ccc5c(c4)OCO5)c-3n2)c1 [Example 168, 3-(2-benzo[1,3]dioxol-5-yl-ethyl)-8-(2,5-dimethoxy-phenylsulfanyl)-3H-purin-6-ylamine]	–	0%
Nc1ncn(CC(c2ccccc2)C2CCCCC2)c2nc(Sc3cc4c(cc3Br)OCO4)nc1-2 (stereo not shown) [Example 227, 8-[(6-Bromo-1,3-benzodioxol-5-yl)thio]-3-(2-cyclohexyl-2-phenylethyl)-3H-purin-6-amine]	–	0%
COc1ccc(OC)c(Sc2nc3c(N)ncnc3n2Cc2ccc(F)cc2)c1 [Example 266, 8-[(2,5-Dimethoxyphenyl)thio]-9-(4-fluorobenzyl)-9H-purin-6-amine]	4.92	–
Nc1ncnc2c1nc(Sc1cc3c(cc1Br)OCO3)n2CCc1ccccc1[N+](=O)[O-] [Example 207, 8-(6-Bromo-benzo[1,3]dioxol-5-ylsulfanyl)-9-[2-(2-nitro-phenyl)-ethyl]-9H-purin-6-ylamine]	7.42	–
Nc1ncn(CCc2ccccc2)c2nc(Cc3cc4c(cc3Br)OCO4)nc1-2 [Example 210, 8-(6-Bromo-benzo[1,3]dioxol-5-ylmethyl)-3-phenethyl-3H-purin-6-ylamine]	–	8%
COc1ccc(OC)c(Sc2nc3c(N)ncnc3n2CCc2ccc(C)cc2)c1 [Example 23, 8-(2,5-Dimethoxy-phenylsulfanyl)-9-(2-p-tolyl-ethyl)-9H-purin-6-ylamine]	< 5.00	–
C[C@H](C(=O)N1CCC(CCn2c(Sc3cc4c(cc3Br)OCO4)nc3c(N)ncnc32)CC1)N(C)C(=O)OC(C)(C)C [Example 717, tert-Butyl{(1R)-2-[4-(2-{6-amino-8-[(6-bromo-1,3-benzodioxol-5-yl)thio]-9H-purin-9-yl}ethyl)piperidin-1-yl]-1-methyl-2-oxoethyl}methylcarbamate]	6.70	–
COc1cc(Br)c(Sc2nc3c(N)ncn(CCC4CCN(C(C)=O)CC4)c-3n2)cc1OC [Example 566, 3-[2-(1-Acetylpiperidin-4-yl)ethyl]-8-[(2-bromo-4,5-dimethoxyphenyl)thio]-3 H-purin-6-amine]	–	1.00%
